{"source": "the supplement of paper PMC10307832", "assay_in_all_cases": "relative viability (nuclei count vs DMSO), 5 days (fraction); higher = more cells survive", "key": {"201T": {"test_system": "201T", "method_in_brief": "(§1)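 Relative viability divides the nuclei count in treated wells by that in vehicle wells. Lung cancer cell lines were seeded in 1536-well plates, dosed by pin tool the next day, and fixed and stained after 5 days in one step with final 0.05% Triton X-100, 1% formaldehyde and 1 ug/ml Hoechst. Dosing was a single drug or a fixed anchor-drug dose plus five library-drug doses (not always all listed) in √10 steps, and values are medians of duplicate plates imaged at 4×.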"}, "A-427": {"test_system": "A-427", "method_in_brief": "as §1"}, "BEN": {"test_system": "BEN", "method_in_brief": "as §1"}, "COR-L23": {"test_system": "COR-L23", "method_in_brief": "as §1"}, "EKVX": {"test_system": "EKVX", "method_in_brief": "as §1"}, "HARA": {"test_system": "HARA", "method_in_brief": "as §1"}, "HCC-15": {"test_system": "HCC-15", "method_in_brief": "as §1"}, "HCC-44": {"test_system": "HCC-44", "method_in_brief": "as §1"}, "HCC-827": {"test_system": "HCC-827", "method_in_brief": "as §1"}, "NCI-H1437": {"test_system": "NCI-H1437", "method_in_brief": "as §1"}}}
{"molecule": "O=c1cc(N2CCOCC2)oc2c(-c3cccc4c3sc3ccccc34)cccc12", "note": "+ C[C@]1(O)C[C@@H](c2nc(-c3ccc4ccc(-c5ccccc5)nc4c3)c3c(N)nccn32)C1 [Linsitinib] (partner 1 µM)", "values": [{"measurement": "relative viability", "setting": "201T; first compound 0.01 µM", "result": 1.04}, {"measurement": "relative viability", "setting": "201T; first compound 0.03162 µM", "result": 1.03}, {"measurement": "relative viability", "setting": "201T; first compound 0.1 µM", "result": 1.03}, {"measurement": "relative viability", "setting": "201T; first compound 0.3162 µM", "result": 1.01}, {"measurement": "relative viability", "setting": "201T; first compound 1 µM", "result": 1.05}, {"measurement": "relative viability", "setting": "A-427; first compound 0.01 µM", "result": 1.13}, {"measurement": "relative viability", "setting": "A-427; first compound 0.03162 µM", "result": 1.12}, {"measurement": "relative viability", "setting": "A-427; first compound 0.1 µM", "result": 1.23}, {"measurement": "relative viability", "setting": "A-427; first compound 0.3162 µM", "result": 1.12}, {"measurement": "relative viability", "setting": "A-427; first compound 1 µM", "result": 1.11}, {"measurement": "relative viability", "setting": "BEN; first compound 0.01 µM", "result": 0.887}, {"measurement": "relative viability", "setting": "BEN; first compound 0.03162 µM", "result": 0.916}, {"measurement": "relative viability", "setting": "BEN; first compound 0.1 µM", "result": 0.978}, {"measurement": "relative viability", "setting": "BEN; first compound 0.3162 µM", "result": 1.02}, {"measurement": "relative viability", "setting": "BEN; first compound 1 µM", "result": 0.948}, {"measurement": "relative viability", "setting": "COR-L23; first compound 0.01 µM", "result": 0.891}, {"measurement": "relative viability", "setting": "COR-L23; first compound 0.03162 µM", "result": 0.877}, {"measurement": "relative viability", "setting": "COR-L23; first compound 0.1 µM", "result": 1}, {"measurement": "relative viability", "setting": "COR-L23; first compound 0.3162 µM", "result": 0.923}, {"measurement": "relative viability", "setting": "COR-L23; first compound 1 µM", "result": 0.882}, {"measurement": "relative viability", "setting": "EKVX; first compound 0.01 µM", "result": 0.989}, {"measurement": "relative viability", "setting": "EKVX; first compound 0.03162 µM", "result": 0.907}, {"measurement": "relative viability", "setting": "EKVX; first compound 0.1 µM", "result": 1.19}, {"measurement": "relative viability", "setting": "EKVX; first compound 0.3162 µM", "result": 0.956}, {"measurement": "relative viability", "setting": "EKVX; first compound 1 µM", "result": 1.01}, {"measurement": "relative viability", "setting": "HARA; first compound 0.01 µM", "result": 0.996}, {"measurement": "relative viability", "setting": "HARA; first compound 0.03162 µM", "result": 0.933}, {"measurement": "relative viability", "setting": "HARA; first compound 0.1 µM", "result": 1.03}, {"measurement": "relative viability", "setting": "HARA; first compound 0.3162 µM", "result": 1.17}, {"measurement": "relative viability", "setting": "HARA; first compound 1 µM", "result": 0.926}, {"measurement": "relative viability", "setting": "HCC-15; first compound 0.01 µM", "result": 0.786}, {"measurement": "relative viability", "setting": "HCC-15; first compound 0.03162 µM", "result": 0.869}, {"measurement": "relative viability", "setting": "HCC-15; first compound 0.1 µM", "result": 0.936}, {"measurement": "relative viability", "setting": "HCC-15; first compound 0.3162 µM", "result": 0.902}, {"measurement": "relative viability", "setting": "HCC-15; first compound 1 µM", "result": 0.847}, {"measurement": "relative viability", "setting": "HCC-44; first compound 0.01 µM", "result": 0.748}, {"measurement": "relative viability", "setting": "HCC-44; first compound 0.03162 µM", "result": 0.661}, {"measurement": "relative viability", "setting": "HCC-44; first compound 0.1 µM", "result": 0.655}, {"measurement": "relative viability", "setting": "HCC-44; first compound 0.3162 µM", "result": 0.684}, {"measurement": "relative viability", "setting": "HCC-44; first compound 1 µM", "result": 0.584}, {"measurement": "relative viability", "setting": "HCC-827; first compound 0.01 µM", "result": 0.906}, {"measurement": "relative viability", "setting": "HCC-827; first compound 0.03162 µM", "result": 0.977}, {"measurement": "relative viability", "setting": "HCC-827; first compound 0.1 µM", "result": 0.941}, {"measurement": "relative viability", "setting": "HCC-827; first compound 0.3162 µM", "result": 0.941}, {"measurement": "relative viability", "setting": "HCC-827; first compound 1 µM", "result": 0.891}, {"measurement": "relative viability", "setting": "NCI-H1437; first compound 0.01 µM", "result": 1.01}, {"measurement": "relative viability", "setting": "NCI-H1437; first compound 0.03162 µM", "result": 1.11}, {"measurement": "relative viability", "setting": "NCI-H1437; first compound 0.1 µM", "result": 1.09}, {"measurement": "relative viability", "setting": "NCI-H1437; first compound 0.3162 µM", "result": 1}]}
